Data: US20240027453A1, “METHOD FOR DETECTION AND QUANTITATIVE MONITORING OF INFECTIONS WITH HERPESVIRUSES” (The Trustees of Princeton University, priority 2020, published 2024)
Read-outs that look alike come from different tables or passages of the source.

System: HCMV
Type: cell-based
Settings: L
Method: In example herpesvirus PRM assay methods shown herein, cell pellets were lysed in 2% SDS, 100 mM NaCl, 0.5 mM EDTA, 50 mM Tris, pH 8.2, and 50 μg of protein was reduced and alkylated with 25 mM TCEP and 50 mM CAM respectively for 20 min at 70° C. Proteins were then precipitated via methanol chloroform precipitation (Wessel & Flugg, Anal Biochem. 138(1):141-143, 1984), resuspended in 50 mM HEPES, pH 8.2 and digested overnight with trypsin (50:1 protein:enzyme w/w ratio). Digested peptides were desalted by SDB-RPS StageTip as previously described (Lum et al., Cell Syst., 7(6):[…], 2018; Greco et al., Methods Mol Biol 1410:39-63, 2016; Federspiel & Cristea, Methods Mol Biol., 1977:115-143, 2019).
Peptides (1.0 μg on column) were analyzed by LC-MS/MS using a Dionex Ultimate 3000 UHPLC coupled online to an EASYSpray ion source and a Q Exactive HF. Peptides were separated on an EASYSpray C18 column (75 μm×25 cm) heated to 50° C. using a linear gradient of 5% B to 32% B over 60 min at a flow rate of 250 nL/min and were ionized at 1.7 kv. Mobile phase A consisted of 0.1% FA in H2O and mobile phase B consisted of 0.1% FA, 2.9% H2O in ACN.
The PRM method was controlled by a peptide inclusion list with retention time windows of 6 min for selected precursor ions.
The PRM assay was developed and analyzed using the open-source software Skyline (Maclean et al., Bioinformatics 26(7):966-968, 2010). Summed area under the curve of 3-4 transitions per peptide was used for quantitation. Targeted peptides were normalized to host protein loading control peptides. Peptide values for each sample were scaled to the average of each peptide across all runs. The average of multiple peptides was used as the inferred value for the protein measurement when more than one peptide was quantified (Federspiel et al., PLoS Biol. 17(9):e3000437. Doi: 10.1371/journal.pbio.3000437). PRM quantitation data were graphed using the Python Seaborn and Matplotlib libraries.
MRC5 primary human fibroblasts (HFs) (ATCC CCL-171) were used as the model system for HSV-1 and HCMV infections and were cultured in complete growth medium (DMEM supplemented with 10% fetal bovine serum and 1% penicillin-streptomycin antibiotics) at 37° C. and 5% CO2. iSLK.219 cells harboring latent KSHV (a gift from Dr. Britt Glaunsinger, University of California, Berkeley) were grown in complete growth medium supplemented with 500 μg/ml hygromycin (ThermoFisher Scientific, 10687010) at 37° C. and 5% CO2. All cells were used for experiments within a maximum of 10 passages.
Wild type HSV-1 strain 17+ (a gift from Beate Sodeik, Hannover Medical School, Hannover, Germany) was propagated as previously described (Diner et al., 2015). Briefly, PO stocks were generated by electroporating pBAC-HSV-1 into U-2 OS cells. […] In a similar manner, wild type HCMV strain AD169 was produced from BAC electroporation into HFs and working stocks were propagated by infecting HFs at a low level. In both cases, cell-associated virus was released by sonication, combined with supernatant virus, then concentrated by ultracentrifugation (20,000 rpm, 2 hours, 4° C. with SW28 swinging bucket rotor [Beckman Coulter]) over a 10% ficoll (HSV-1) or 20% sorbitol (HCMV) cushion. Virus stock titers were determined by plaque assay for HSV-1 or tissue culture infectious dose (TCID50) for HCMV and infections were performed at a multiplicity of infection (MOI) of 3.
12 hours prior to virus infection or reactivation, cells were treated with either the small molecule drug or DMSO/PBS control at an equivalent volume. […] For infection cycles lasting longer than 24 hours, small molecule drugs were re-added to the cell culture medium every 24 hours. Upon collection, cells were rinsed with PBS, scraped into a microcentrifuge tube, pelleted by centrifugation, and rinsed again with PBS.

In the case of Nc1ccn(C[C@@H](CO)OCP(=O)(O)O)c(=O)n1 [CDV, cidofovir], the “UL82 (P06726) protein, numerical value of heatmap FIG. 6C” value (timepoint 48) is reported as 0.2148, the “UL88 (P16731) protein, numerical value of heatmap FIG. 6C” value (timepoint 48) is reported as 0.05021 and the “UL94 (P16800) protein, numerical value of heatmap FIG. 6C” value (timepoint 48) is reported as 0.09258. For the same molecule, the “UL99 (P13200) protein, numerical value of heatmap FIG. 6C” value (timepoint 48) was 0.06513, the “UL103 (P16734) protein, numerical value of heatmap FIG. 6C” value (timepoint 48) was 0.1954 and the “UL117 (P16770) protein, numerical value of heatmap FIG. 6C” value (timepoint 48) was 0.3875. For the same molecule, the “gH (P12824) protein, numerical value of heatmap FIG. 6C” value (timepoint 48) was 0.1304, the “gL (P16832) protein, numerical value of heatmap FIG. 6C” value (timepoint 48) was 0.06908 and the “gM (P16733) protein, numerical value of heatmap FIG. 6C” value (timepoint 48) was 0.03119. For the same molecule, the “gN (P16795) protein, numerical value of heatmap FIG. 6C” value (timepoint 48) was 0.07597, the “sp|P16809|IR11_HCMVA (P16809) protein, numerical value of heatmap FIG. 6C” value (timepoint 48) was 0.502 and the “CVC1 (P16799) protein, numerical value of heatmap FIG. 6C” value (timepoint 72) was 0.4079. The “GO (P16750) protein, numerical value of heatmap FIG. 6C” value (timepoint 72) was 0.601, the “MCP (P16729) protein, numerical value of heatmap FIG. 6C” value (timepoint 72) was 0.4006 and the “SCP (Q7M6N6) protein, numerical value of heatmap FIG. 6C” value (timepoint 72) was 0.3733. For the same molecule, the “TRM2 (P16792) protein, numerical value of heatmap FIG. 6C” value (timepoint 72) was 0.5505, the “UL22A (P16845) protein, numerical value of heatmap FIG. 6C” value (timepoint 72) was 0.4199 and the “UL25 (P16761) protein, numerical value of heatmap FIG. 6C” value (timepoint 72) was 0.4606. For the same molecule, the “UL29 (P16764) protein, numerical value of heatmap FIG. 6C” value (timepoint 72) was 0.8549, the “UL30 (P16765) protein, numerical value of heatmap FIG. 6C” value (timepoint 72) was 0.4115 and the “UL31 (P16848) protein, numerical value of heatmap FIG. 6C” value (timepoint 72) was 0.4223. The “UL43 (P16781) protein, numerical value of heatmap FIG. 6C” value (timepoint 72) was 0.2402, the “UL52 (P16793) protein, numerical value of heatmap FIG. 6C” value (timepoint 72) was 0.4658 and the “UL76 (P16725) protein, numerical value of heatmap FIG. 6C” value (timepoint 72) was 0.3035. The “UL79 (P16752) protein, numerical value of heatmap FIG. 6C” value (timepoint 72) was 0.4713, the “UL80 (P16753) protein, numerical value of heatmap FIG. 6C” value (timepoint 72) was 0.6581 and the “UL82 (P06726) protein, numerical value of heatmap FIG. 6C” value (timepoint 72) was 0.4947. For the same molecule, the “UL88 (P16731) protein, numerical value of heatmap FIG. 6C” value (timepoint 72) was 0.4289, the “UL94 (P16800) protein, numerical value of heatmap FIG. 6C” value (timepoint 72) was 0.5474 and the “UL99 (P13200) protein, numerical value of heatmap FIG. 6C” value (timepoint 72) was 0.455. The “UL103 (P16734) protein, numerical value of heatmap FIG. 6C” value (timepoint 72) was 0.5642, the “UL117 (P16770) protein, numerical value of heatmap FIG. 6C” value (timepoint 72) was 0.5867 and the “gH (P12824) protein, numerical value of heatmap FIG. 6C” value (timepoint 72) was 0.7542. The “gL (P16832) protein, numerical value of heatmap FIG. 6C” value (timepoint 72) was 0.5073, the “gM (P16733) protein, numerical value of heatmap FIG. 6C” value (timepoint 72) was 0.477 and the “gN (P16795) protein, numerical value of heatmap FIG. 6C” value (timepoint 72) was 0.5141. For the same molecule, the “sp|P16809|IR11_HCMVA (P16809) protein, numerical value of heatmap FIG. 6C” value (timepoint 72) was 0.869, the “CVC1 (P16799) protein, numerical value of heatmap FIG. 6C” value (timepoint 96) was 0.6 and the “GO (P16750) protein, numerical value of heatmap FIG. 6C” value (timepoint 96) was 0.5678. The “MCP (P16729) protein, numerical value of heatmap FIG. 6C” value (timepoint 96) was 0.8755, the “SCP (Q7M6N6) protein, numerical value of heatmap FIG. 6C” value (timepoint 96) was 0.678 and the “TRM2 (P16792) protein, numerical value of heatmap FIG. 6C” value (timepoint 96) was 0.8343. The “UL22A (P16845) protein, numerical value of heatmap FIG. 6C” value (timepoint 96) was 0.5842, the “UL25 (P16761) protein, numerical value of heatmap FIG. 6C” value (timepoint 96) was 0.8443 and the “UL29 (P16764) protein, numerical value of heatmap FIG. 6C” value (timepoint 96) was 0.8921. For the same molecule, the “UL30 (P16765) protein, numerical value of heatmap FIG. 6C” value (timepoint 96) was 0.5445, the “UL31 (P16848) protein, numerical value of heatmap FIG. 6C” value (timepoint 96) was 0.6245 and the “UL43 (P16781) protein, numerical value of heatmap FIG. 6C” value (timepoint 96) was 0.7777. The “UL52 (P16793) protein, numerical value of heatmap FIG. 6C” value (timepoint 96) was 0.8766, the “UL76 (P16725) protein, numerical value of heatmap FIG. 6C” value (timepoint 96) was 0.421 and the “UL79 (P16752) protein, numerical value of heatmap FIG. 6C” value (timepoint 96) was 0.5586.
